Assay results as given in patent US4517196A, “Tricyclic thiazolyloxamic acids and their derivatives, their preparation, and therapeutic agents containing these compounds” (BASF Aktiengesellschaft, priority 1981, dated 1985).

System: passive cutaneous anaphylaxis
Test: antiallergic action, passive cutaneous anaphylaxis (PCA) in rats, oral
Type: in vivo, rat
Details: for Inhibition of PCA, relative effectiveness: relative to comparative compound V1 (1.00); for ED50: Rattus norvegicus, read-out: Inhibition of PCA, ED 50%; for times more effective than the comparative compound V1: administered orally
Protocol: The antiallergic action was tested against passive cutaneous anaphylaxis in rats.
Narcotized male rats (weighing from 100 to 140 g) are sensitized by administration of an intradermal injection (shaved skin) of 0.1 ml of an ovalbumin antiserum. After a sensitization period of about 48 hours, treatment is carried out by administering various dosages (10 animals/dose) of the test substances intraperitoneally or orally. 15 and 20 minutes after treatment, an anitgen/Evans blue mixture (10 mg/kg of ovalbumin in 2% strength Evans blue solution) is injected intravenously into the experimental animals. 30 minutes later, the animals are killed, and the back skin is peeled off and the diameter of the circular blue area on the inner surface is measured. The size of the colored spot in untreated control animals may be standardized. Antiallergic substances reduce the diameter of the colored spots, their reduction being dependent on the dose. The ED 50% is the dose which produces a 50% reduction in the diameter of the colored spot in comparison with control animals which have not been treated with the drug.

[1] = oral administration, rats, dose giving 50% reduction in diameter of colored spot vs untreated controls

| Structure (SMILES) | Inhibition of PCA, ED 50% [1] [mg/kg] | Inhibition of PCA, relative effectiveness (oral administration, rats) | ED50 [1] [mg/kg] | times more effective than the comparative compound V1 [times] | oral effectiveness in doses up to 100 mg/kg (oral, doses up to 100 mg/kg, commercial preparation Intal) |
| --- | --- | --- | --- | --- | --- |
| O=C(O)C(=O)Nc1nc2ccccc2s1 [Example V1, N-benzothiazol-2-yl oxamate, reference compound] | > 8.60 | 1.00 | – | – | – |
| CCOC(=O)C(=O)Nc1nc2c(s1)C(=O)c1ccccc1-2 [Example 2, Ethyl N-(8-oxoindeno[1,2-d]thiazol-2-yl)-oxamate] | – | 4.41 | 1.95 | 4.4 | – |
| CCOC(=O)C(=O)Nc1nc2c(s1)Cc1ccccc1-2 [Example 1, Ethyl N-(indeno[1,2-d]thiazol-2-yl)-oxamate] | – | 5.81 | 1.48 | – | – |
| O=C(O)C(=O)Nc1nc2c(s1)Cc1ccccc1-2 [Example 4, N-(Indeno[1,2-d]thiazol-2-yl)-oxamic acid] | – | 6.61 | 1.3 | 6.6 | – |
| O=C(O)c1cc(=O)c2c(OCC(O)COc3cccc4oc(C(=O)O)cc(=O)c34)cccc2o1 [cromolyn, reference compound] | – | – | 100 | – | orally ineffective |
